In patent EP2759295A1, “Foam cell specific Liver X Receptor (LXR) alpha agonist, SIRT1 inhibitors as well as p300 inhibitors as pharmaceutically active agents” (Max-Planck-Gesellschaft zur Förderung der Wissenschaften …, priority 2013, dated 2014):
Entries after “also recorded” stand apart in the source; their conditions may differ.

Key:
Type in all cases: cell-based, human
THP-1 macrophages = test: qPCR gene expression of LXRα target genes in THP-1 macrophages
Procedure: (§1) For generating macrophages differentiation was induced by 10^-8 M Phorbol 12-myristate 13-acetate (PMA) (Sigma-Aldrich) for 48 h. Ligand treatment of macrophages was performed for further 24 h. To induce foam cell formation macrophages were treated for additional 48 h with 100 µg/mL modified human oxidized low density lipoprotein (oxLDL) obtained from Source BioScience (RP-048). Ligand treatment was performed simultaneously with foam cell formation. Cholesterol loading and treatment was controlled with Oil Red O staining (Alfa Aeser). To investigate ligand induced effects on cell proliferation of THP-1 macrophages CellTiter-Glo Luminescent Cell Viability Assay (Promega) was utilized.
(§2) Total RNA isolation and purification was performed by using the RNeasy Mini Kit (QIAGEN) and RNase-Free DNase Set (QIAGEN). cDNA was generated by reverse transcription using the High Capacity cDNA Reverse Transcription Kit (Applied Biosystems). Gene expression was quantified using the SYBR Green PCR Master Mix (Applied Biosystems) and ABI 7900HT Fast Real Time PCR System (Applied Biosystems). In each reaction 0.8 ng/µL cDNA and 0.2 µM primers were used. Gene expression was calculated with the ΔΔCt-method. β-Actin was used for normalisation.

foam cells [1] = test: qPCR gene expression of LXRα target genes in foam cells; details: 10 µM
Procedure: as §1, §2

foam cells [2] = test: siRNA-mediated LXRα/β knockdown in foam cells with qPCR; details: 10 µM ligand for 24 h
Procedure: Target specificity of ligand-dependent gene expression effects was investigated in siRNA-mediated LXRα and β-knockdown foam cells with subsequent qPCR or microarray analysis. Therefore, 2 x 10^5 THP-1 cells/well were differentiated in 24-well plate and induced to foam cells prior to knockdown as described above. Foam cells were transfected using TransIT-TKO transfection reagent (Mirus Bio), for combined knockdown with 15 nM LXRα Silencer Validated siRNA (Ambion, ID 5458) and 15 nM LXRβ Silencer Select Validated siRNA (Ambion, ID s14684) and with 30 nM LXRα or LXRβ for individual knockdowns, respectively. As control we used 30 nM Silencer Select Negative Control #1 (Ambion). Transfection was carried out for 48 h and followed by treatment with 10 µM ligand or vehicle control for 24 h.
as §2

foam cells [3] = test: Western blot of LXRα and APOE content in foam cells; details: densitometry
Procedure: Whole cell extracts were harvested from three biological replicates and denaturized for SDS-PAGE (NuPAGE Novex 4-12% Bis-Tris Gels). Proteins were blotted on nitrocellulose Hybond ECL membrane and incubated with strictly validated published antibodies against LXRα (Abcam, ab 41902), APOE (Abcam ab1906), and as housekeeping protein control β-Actin (Santa Cruz Biotechnology, sc-47778, C4). Secondary antibodies were HRP labeled anti-mouse and anti-rabbit (Santa Cruz Biotechnology). After detection with Western Lightning Plus-ECL solution membranes were stripped with Restore Plus Western Blot Stripping Buffer. Densitometry was performed in ImageQuant TL (GE Healthcare). This tool measures quantitatively the optical density and provides more accurate data than simple eye-observations. The calculation of log (protein of interest/ β-Actin) corrects data for loading imbalances.

foam cells [4] = test: cholesterol content in foam cells (Amplex Red Cholesterol Assay); details: 10 µM, 48 h
Procedure: THP-1 monocytes were plated out into 24-well plates (Nunc) at a density of 2 x 10^5 cells/well. After differentiation and treatment cells were lysed with 100 µL lysis buffer (PBS, 0.25 M NaCl, 1% Triton X-100). Total and free cholesterol were determined using the colorimetric enzymatic Amplex Red Cholesterol Assay Kit (Invitrogen). Triglycerides were quantified by Triglyceride Assay Kit (BioVision). For normalisation protein content was determined with Pierce 660 nm Protein Assay Reagent (Thermo Scientific).

`C(=C\c1ccc(OCC2CO2)cc1)/c1ccccc1` (stereo not drawn) [compound 1, 2-[[4-[(E)-styryl]phenoxy]-methyl]oxirane] was tested, and the “expression of LXRα target genes (LXRα, SREBF1, ABCA1, APOE)” value (THP-1 macrophages; 10 µM) was “only marginally activated LXR-target genes in macrophages”, the ABCA1 expression (THP-1 macrophages; in the presence of 1 µM T09) was “additive effects” and the “expression of LXRα target genes (LXRα, SREBF1, ABCA1, APOE)” value (foam cells [1]) was “strongly in foam cells; also recorded: potent target gene expression similar to T09; also recorded: up-regulation of SREBF1 mRNA”. For the same compound, the “gene expression of LXRα and ABCA1 after LXRα/β knockdown” value (foam cells [2]) was “higher dependency on the LXRα subtype”, the “protein expression levels of LXRα target genes” value (foam cells [3]) was “increased protein expression levels of LXRα target genes” and the “total and esterified cholesterol content” value (foam cells [4]) was “significant reduction of total and esterified cholesterol content”.
